Assay results: ChEMBL document CHEMBL3046387, “Antidepressant activity of carbamates and urea derivatives” (Med Chem Res, 2012)
The source made the active and inactive calls. The rule behind the calls is not given here.

test system: Mus musculus; assay: Antidepressant activity in Mus musculus (mouse) assessed as reduction of immobility time at 10 mg/kg after 1 hr measured for 5 min by forced swim test; assay type: functional

For `CCN(CC)C(=O)Nc1ccc(Cl)cc1`, which inhibition in vivo at 10 mg/kg is on record?
The inhibition in vivo at 10 mg/kg was 7.04%.

How did the inhibition in vivo at 10 mg/kg turn out when `CCN(CC)C(=O)Nc1ccc(C(=O)O)cc1` was run?
Its inhibition in vivo at 10 mg/kg is 16.7%.

For `NNCCc1ccccc1` [PHENELZINE], which inhibition in vivo at 10 mg/kg is on record?
The inhibition in vivo at 10 mg/kg was 15.9%.

`CCCCCCCOC(=O)Nc1ccccc1` was tested. Which inhibition in vivo at 10 mg/kg did it give?
Its inhibition in vivo at 10 mg/kg is 32.5%.

`CCOC(=O)Nc1ccccc1` [ETHYL PHENYLCARBAMATE] was tested. Which inhibition in vivo at 10 mg/kg did it give?
The inhibition in vivo at 10 mg/kg was 21.6%.

`CCN(CC)C(=O)Nc1c(C)cccc1C` was tested. Which inhibition did it give?
The inhibition was “inactive”.

Which inhibition in vivo at 10 mg/kg does the source give for `CCN(CC)C(=O)Nc1ccccc1C(=O)O` here?
The inhibition in vivo at 10 mg/kg was 3.52%.

How did the inhibition in vivo at 10 mg/kg turn out when `O=C(Nc1ccccc1)N1CCN(c2ccccc2)CC1` was run?
Its inhibition in vivo at 10 mg/kg is 27.7%.

For `CCNC(=S)N1CCN(c2ccccc2)CC1`, which inhibition is on record?
The inhibition was “inactive”.
